Results on one molecule are retold here after patent US7781477B2, “Therapeutic use of N-(1H-Indolyl)-1H-indole-2-carboxamide derivatives” (Sanofi-Aventis, priority 2004, dated 2010).

One experiment has as its target T1, TRPV1 receptors (Mus musculus, UniProt Q704Y3).
T1 construct: from tissue; host or cells: living mouse, cornea (C fibers)
As to the kind of experiment: Mouse corneal irritation test (capsaicin ocular instillation). The settings on record: percentage of protection against rubbing of the eye induced by 2 μl of 160 μM capsaicin, pretreatment time 1 h. Format: in vivo. Here is the method:
Mouse Corneal Irritation Test
The irritating nature of capsaicin is easily assessed on the cornea since this organ is one of the most innervated by C fibers. In this context, according to preliminary experiments, the application of a very small amount of capsaicin (2 μl at a concentration of 160 μM) at the surface of the cornea of an animal results in a number of kinds of stereotyped behavior related to irritation which are easy to record. These include: blinking of the eye, rubbing of the instilled eye by the ipsilateral front paw, rubbing of the face with the two front paws and scratching of the ipsilateral face by the hind paw. […] Its appearance is furthermore also normal. […] It may be concluded therefrom that the duration of action of capsaicin at these doses is less than 2 minutes. […]
In practice, the test product is administered orally and, with a delay (pretreatment time: t) which depends on the pharmacokinetic data, the animal receives the ocular instillation of 2 μl of a 160 μM capsaicin solution prepared as indicated above. During observation for 2 minutes following the instillation, the number of rubbing actions on the instilled eye by the ipsilateral front paw is recorded.
For a given animal, the percentage of protection is calculated as follows: P=100−((number of scratching actions observed/mean number of scratching actions of the group treated with the solvent)×100). […]

Another experiment deals with T2, TRPV1 receptor (Rattus norvegicus, UniProt O35433).
T2 construct: The neurons of the DRG naturally express the TRPV1 receptor; endogenous in cells; host or cells: primary culture of newborn rat dorsal root ganglion (DRG) neurons
T2 sequence (O35433 whole entry): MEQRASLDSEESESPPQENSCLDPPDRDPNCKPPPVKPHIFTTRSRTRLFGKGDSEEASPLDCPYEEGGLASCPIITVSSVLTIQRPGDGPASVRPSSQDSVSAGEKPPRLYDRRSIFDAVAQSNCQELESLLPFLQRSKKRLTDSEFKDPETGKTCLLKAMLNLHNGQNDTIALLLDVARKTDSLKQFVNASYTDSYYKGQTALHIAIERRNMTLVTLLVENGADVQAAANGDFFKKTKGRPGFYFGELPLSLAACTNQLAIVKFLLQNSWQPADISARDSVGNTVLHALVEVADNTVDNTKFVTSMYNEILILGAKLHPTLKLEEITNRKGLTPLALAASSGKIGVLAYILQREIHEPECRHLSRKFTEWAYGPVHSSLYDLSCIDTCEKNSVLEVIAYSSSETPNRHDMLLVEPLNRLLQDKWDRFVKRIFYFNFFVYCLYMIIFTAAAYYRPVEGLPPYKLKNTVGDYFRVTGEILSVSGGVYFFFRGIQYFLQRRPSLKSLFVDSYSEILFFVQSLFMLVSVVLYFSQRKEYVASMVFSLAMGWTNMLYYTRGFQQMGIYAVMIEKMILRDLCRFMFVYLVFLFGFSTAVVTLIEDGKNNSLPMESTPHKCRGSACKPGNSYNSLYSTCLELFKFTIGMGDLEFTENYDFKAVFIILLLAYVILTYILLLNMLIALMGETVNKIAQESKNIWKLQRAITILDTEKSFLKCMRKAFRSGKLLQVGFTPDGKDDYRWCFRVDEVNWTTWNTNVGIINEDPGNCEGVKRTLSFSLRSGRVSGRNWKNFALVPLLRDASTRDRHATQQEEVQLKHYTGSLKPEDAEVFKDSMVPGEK
Briefly: Inhibition of the current induced by capsaicin with regard to rat DRGs (whole cell patch clamp). The conditions noted are these: DRG neuron; % inhibition of the control capsaicin (300 nM) response; compound at 10 nM; primary culture of newborn rat DRG neurons; read-out: % Inhibition by the DRG patch technique. Format: cell-based. Here is the method: Test of the Inhibition of the Current Induced by Capsaicin with Regard to Rat DRGs
Primary Culture of Rat Dorsal Route Ganglion (DRG) Cells:
The neurons of the DRG naturally express the TRPV1 receptor.
Primary cultures of DRGs of newborn rats are prepared from 1-day-old rats. Briefly, after dissection, the ganglions are trypsinized and their cells dissociated mechanically by gentle trituration. […]
The measurement chambers (volume 800 μl) comprising the cell preparation are placed on the stage of an inverted microscope (Olympus IMT2) equipped with Hoffman optics (Modulation Contrast, New York) and are observed at a magnification of 400×. […] The overall currents (membrane potential set at −60 mV) are recorded with an Axopatch 1D amplifier (Axon Instruments, Foster City, Calif.) connected to a PC controlled by Pclamp8 software (Axon Instruments). The current plots are recorded on paper and simultaneously recorded digitally (sampling frequency 15 to 25 Hz) and acquired on the hard disk of the PC.
The application of a 300 nM capsaicin solution produces an incoming cationic current with regard to the DRG cells (voltage set at −70 mV). […] The results are expressed as % of inhibition of the control capsaicin response.

T1 sequence (Q704Y3 whole entry): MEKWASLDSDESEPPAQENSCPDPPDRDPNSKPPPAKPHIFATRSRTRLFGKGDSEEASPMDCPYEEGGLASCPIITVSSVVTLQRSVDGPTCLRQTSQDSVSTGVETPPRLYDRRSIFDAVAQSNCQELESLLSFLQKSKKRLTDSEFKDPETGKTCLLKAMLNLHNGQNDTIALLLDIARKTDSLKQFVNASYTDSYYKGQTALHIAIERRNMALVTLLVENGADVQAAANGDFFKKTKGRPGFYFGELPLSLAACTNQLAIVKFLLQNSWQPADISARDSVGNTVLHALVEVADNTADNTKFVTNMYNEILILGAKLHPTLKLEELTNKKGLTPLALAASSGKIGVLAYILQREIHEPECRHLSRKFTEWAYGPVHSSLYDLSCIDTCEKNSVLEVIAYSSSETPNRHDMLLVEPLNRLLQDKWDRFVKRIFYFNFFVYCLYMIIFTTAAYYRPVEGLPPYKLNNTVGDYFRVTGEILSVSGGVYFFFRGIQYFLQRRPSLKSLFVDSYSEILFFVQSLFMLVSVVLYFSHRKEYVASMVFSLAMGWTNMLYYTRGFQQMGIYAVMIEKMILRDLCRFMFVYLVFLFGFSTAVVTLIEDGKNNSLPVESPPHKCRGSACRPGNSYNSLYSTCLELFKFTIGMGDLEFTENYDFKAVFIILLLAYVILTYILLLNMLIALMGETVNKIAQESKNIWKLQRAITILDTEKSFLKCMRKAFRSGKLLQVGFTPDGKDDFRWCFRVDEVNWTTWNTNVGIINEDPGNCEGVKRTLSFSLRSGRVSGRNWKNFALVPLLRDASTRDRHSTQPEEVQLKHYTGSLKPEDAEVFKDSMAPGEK

Take `Cn1ccc2cc(NC(=O)c3cc4ccccc4n3Cc3cccc(C(F)(F)F)c3)ccc21` [Compound No. 1, N-(1-Methyl-1H-indol-5-yl)-1-(3-trifluoromethylbenzyl)-1H-indole-2-carboxamide]: the “% P - (t) at 60 mg/kg (p.o.) - (n = 8)” value on TRPV1 receptors is recorded as 26% - (1 h). Also, the inhibition at 0.01 µM on TRPV1 receptor was 56%.
